What was measured:
Format in all cases: in vivo
[1] = system: cortex of the brain; assay: Anti-oxidant parameters in brain cortex, kainic acid induced seizure rat model; conditions: KA seizure rat model, KA vs control
Protocol: (§1) Two-month-old male Sprague-Dawley rats were purchased from commercial vendor and housed at 25°±2° C., with the humidity maintained at 55%, wood chip bedding, on a 12:12 hour dark/light cycle, with free access to food and water. All animal procedures were carried out in accordance with NIH and Auburn University Animal Care and Use Committee guidelines. The rats were divided into four groups (1. Control, 2. Kainic acid (10 mg/kg), 3. LD (Low Dose)-composition containing OBC 250 mg/kg+Kainic acid, and 4. High Dose (HD)-composition containing OBC 500 mg/kg+Kainic acid). Composition containing OBC was mixed with powdered feed and administered orally for 2 weeks prior to kainic-acid administration. […] Neuroscience. 1982; 7(10):2525-36; Jinde et al., Lack of kainic acid-induced gamma oscillations predicts subsequent CA1 excitotoxic cell death. Eur J Neurosci. 2009; 30(6):1036-55; Medvedev et al., Kainic acid induces distinct types of epileptiform discharge with differential involvement of hippocampus and neocortex. Brain Res Bull. 2000; 52(2):89-98). Typically, Racine scores include the following stages:
For the complete management of epilepsy, it is imperative to reduce the incidence of seizures and also to effectively manage and correct the damage to the neurons which is induced by recurrent seizure activity. Drugs which reduced the incidence of seizures may not effectively manage and correct the clinical conditions resulting from seizures. Failure to correct and manage such effects results in neurodegeneration. The ability of a composition comprising oroxylin A, baicalein and chrysin (OBC) [250 mg/kg—low dose (LD) and 500 mg/kg—high dose (HD)] to management of neurotoxicity associated by epilepsy was tested in kainic acid induced seizure rat model. The biochemical parameters like ROS, hydrogen peroxide, protein carbonyl levels, nitrite levels, glutathione content, mitochondrial activity, and caspase activity were estimated in the cortex of the rat models.

[2] = system: caspase 3; assay: Caspase 3 activity in brain cortex, kainic acid induced seizure rat model; conditions: KA seizure rat model, KA vs control, OBC 250 and 500 mg/kg
Protocol: as §1
(§2) For the complete management of epilepsy, it is imperative to reduce the incidence of seizures and also to effectively manage and correct the damage to the neurons which is induced by recurrent seizure activity. […]

[3] = system: caspase 1; assay: Caspase 1 activity in brain cortex, kainic acid induced seizure rat model; conditions: KA seizure rat model, KA vs control, OBC 250 and 500 mg/kg
Protocol: as §1, §2

[4] = OBC 250 and 500 mg/kg oral 2 weeks

C=C(C)[C@H]1CN[C@H](C(=O)O)[C@H]1CC(=O)O [Kainic acid]
decreased: Glutathione levels (FIG. 7) ([1]; OBC 250 and 500 mg/kg)
significantly increased: Hydrogen peroxide levels (FIG. 4) [1, 4] | Lipid peroxidation (FIG. 5) [1, 4] | Nitrite content (FIG. 3) [1, 4] | Protein carbonyl content (FIG. 6) [1, 4] | ROS generation (FIG. 2) [1, 4] | Activity of caspase 3 (FIG. 10) [2] | Activity of caspase 1 (FIG. 9) [3]

— patent US12465585B2, “Compositions for the management of seizure induced neurotoxicity” (SAMI-SABINSA GROUP LIMITED, priority 2018, dated 2025)
